Reference: the METLIN SMRT retention time set (Domingo-Almenara et al. 2019)

Experiment: gradient 5% acetonitrile 3 min, to 50% in 2 min, to 85% in 15 min, held 3 min, 100 µL/min
Conditions: column: Zorbax Extend-C18 2.1 x 50 mm; eluents: water / acetonitrile, 0.1% formic acid
Summary of the method: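 Retention times come from adduct peaks that were picked computationally and then checked by hand. The standards, pure and pooled in mixtures of ~100 molecules, were run on a Zorbax Extend-C18 column (2.1 × 50 mm, 1.8 μm) at 100 μL/min with water and acetonitrile, each with 0.1% formic acid. Detection was by quadrupole time-of-flight mass spectrometry in positive and negative ionization mode, with a dead volume of 40 μL and a dwell volume of 900 μL.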

RP-LC retention time	SMILES
586 s	CC(NC(=O)c1ccc(-c2ccnc(N3CCCC3)n2)cc1)c1cccnc1 (stereo not drawn)
677 s	CC(=O)N1N=C(c2ccc(Br)cc2)CC1c1ccc2ncccc2c1 (stereo not drawn)
831 s	CCn1c(=O)c(N2CCC(NC(=O)NC3CCCCC3)CC2)nc2ccccc21
627 s	CCCN1CCN(c2cc(C(=O)O)c3cc(NS(=O)(=O)c4cc(F)ccc4C)ccc3n2)CC1
1110 s	Cc1nn(C(=O)C2CC2)c(C)c1Sc1ccccc1[N+](=O)[O-]
742 s	CS(=O)(=O)N1CCCc2cc(C(=O)NCc3ccco3)ccc21
1230 s	CC(C)(C)c1ccc(S(=O)(=O)N2CCCCC2C(=O)N2CCN(c3ccc(F)cc3)CC2)cc1 (stereo not drawn)
901 s	O=C(NCc1ccc(C(F)(F)F)cc1)C1CCN(c2nnc(-c3ccccc3)o2)CC1
770 s	O=C1NC2(CCN(C(=O)NCc3ccc(F)cc3)CC2)Nc2c(Cl)cccc21
784 s	Cc1nc(N2CCCC2)c2c(C(=O)Nc3cccc(F)c3)c(C)oc2n1
922 s	Cc1ccccc1S(=O)(=O)N1CCC(C(=O)NCCc2csc(-c3cccs3)n2)CC1
855 s	CCn1nccc1-c1cccc(-c2noc(CNC(=O)Cc3ccccc3)n2)c1
1010 s	Cn1c(=O)c(-c2c(Cl)cccc2Cl)cc2cnc(Nc3ccc(N4CCOCC4)cc3)nc21
701 s	O=C(COc1ccc(Cl)cc1Cl)NC1CC(=O)N(C2CC2)C1 (stereo not drawn)
710 s	O=C(NC1CCCCC1)C1CCN(S(=O)(=O)c2cc(C(=O)N3CCOCC3)cs2)CC1
768 s	O=c1n(Cc2ccccc2Cl)nc2n1CCCCC2
709 s	COc1ccc(OC)c(NC(=O)C2CCN(c3cc(N4CCCCC4)ncn3)CC2)c1
691 s	CCC(C(=O)NC(C)C(=O)Nc1nc2ccccc2[nH]1)c1ccccc1 (stereo not drawn)
939 s	COc1cc(Cl)ccc1C(=O)N1C[C@@H]2C[C@H]1C[C@@H]2NC(=O)c1ccccc1

RP-LC retention time	SMILES
981 s	CCc1cccc(-n2nnnc2N2CCN(C(=O)Nc3ccc(C)c(F)c3)CC2)c1
1160 s	O=S(=O)(c1ccc(Br)s1)N1CCc2nc(-c3ccccc3)ncc2C1
576 s	CC(C)NC(=O)c1ccc2c(c1)nc(CN1CCN(C(=O)NC(C)C)CC1)n2C
754 s	CCn1cnc(S(=O)(=O)N2CCCC(C(=O)Nc3cccc(C)c3C)C2)c1 (stereo not drawn)
915 s	COC(=O)c1ccccc1S(=O)(=O)N1CCc2c(c(-c3nnc(-c4ccc(F)cc4)o3)nn2C)C1
953 s	Cc1cc(C)c(C(=O)N2CCCC(C(=O)N3CCN(c4cccc(Cl)c4)CC3)C2)[nH]1 (stereo not drawn)
606 s	Cc1ccc(NC(=O)N2CCc3nc[nH]c3C2)cc1C
849 s	COc1ccc(-c2noc(C3CCCN3C(=O)c3ccsc3)n2)cc1 (stereo not drawn)
675 s	CN1CCC2(CC1)N=C(c1ccc(Br)cc1)CC(c1cc(Cl)ccc1O)N2 (stereo not drawn)
1190 s	Cc1nn(-c2ccc(F)cc2)c2nc(N3CCCC(C(=O)NC4CCCCC4)C3)sc12 (stereo not drawn)
641 s	N#Cc1cccc(C(=O)N2CCC(c3cc(N)on3)CC2)c1
1190 s	CCN1C(=O)c2ccccc2Oc2ccc(C(=O)N3CCN(c4cc(Cl)ccc4C)CC3)cc21
817 s	Cc1ccc(NC(=O)C2CCCN2S(=O)(=O)c2cc3c(cc2C)NC(=O)CO3)c(C)c1 (stereo not drawn)
677 s	NC(=O)C1CCN(C(c2ccccc2F)c2sc3nc(-c4ccco4)nn3c2O)CC1 (stereo not drawn)
1250 s	COc1cccc(-n2c(=O)c(C(=O)Nc3ccc(F)c(F)c3)c(O)c3cccnc32)c1
874 s	Cc1ccccc1CNC(=O)CN1C(=O)C(C)(C)c2ccccc21
676 s	CCCN1CCN(C(=O)C2=NN(c3ccc(Cl)cc3)c3ncccc3S2(=O)=O)CC1
930 s	CN(Cc1ccccc1)c1ccc(-c2noc(CN3CCSCC3)n2)cn1

The next lines start with the compound.

SMILES	RP-LC retention time
CCCCN1C(=O)C(C)(C(=O)NCc2ccccc2)Oc2cccnc21 (stereo not drawn)	972 s
CCOc1ccc(NC(=O)N2CCCC2c2cc(C)on2)cc1 (stereo not drawn)	854 s
CCc1cccc(NC(=O)C2CCN(S(=O)(=O)c3ccc4c(c3)NC(=O)C(C)O4)CC2)c1 (stereo not drawn)	838 s
O=C(c1ccc2c(c1)OCO2)N1CC(F)(F)C[C@H]1COc1ccncc1	615 s
CCc1cccc(NC(=O)Cn2c(=O)n(-c3ccc(F)cc3)c(=O)c3c2cc(C)n3C)c1	914 s
COCCCN(C(=O)c1ccc(F)cc1)C(C)C(=O)c1c(C)[nH]c(C(=O)OC)c1C (stereo not drawn)	754 s
Cc1ccc(Nc2c(-c3ccc(Br)cc3)nc3cnccn23)cc1Cl	1180 s
COc1cc(OC)cc(C(=O)N2CCC3(CC2)NC(=O)c2ccccc2N3C)c1	734 s
O=C(Nc1cccc(F)c1)N1C[C@H]2C[C@H](C1)[C@H]1CCCC(=O)N1C2	660 s
CCCn1nc(CNC(=O)c2cnccn2)c2ccccc21	765 s
CCOCCCNC(=O)C1CCN(c2nnc3cccc(C)n23)CC1	593 s
O=c1ccc(-n2cccn2)nn1CCNS(=O)(=O)c1ccc(Cl)s1	708 s
COc1ccc(-c2cn3c(CC(=O)Nc4ccc(OC)cc4OC)csc3n2)cc1	746 s
Cn1c(=O)c(=O)n(C)c2cc(N3CCCC3)c(NC(=O)Cc3ccc(Cl)cc3)cc21	685 s
Cn1c(=O)c2cc(C(=O)Nc3ccc(F)cc3)cnc2n(-c2ccccc2)c1=O	868 s
Cc1oc(C2CCN(C(=O)Nc3ccc(Br)cc3)CC2)nc1C(=O)N(C)C	759 s
Fc1ccccc1Cn1cccc1-c1nc(-c2ccc3c(c2)OCO3)no1	1230 s
CN(Cc1cccnc1Oc1ccccc1)C(=O)c1cccn1C	781 s
Cc1nnc2n1-c1sccc1C(c1ccccc1)=NC2	712 s
COc1ccc(-c2noc(-c3nnn4c3COC(c3ccc(Cl)cc3)C4)n2)cc1F (stereo not drawn)	1230 s
COc1cccc(NC(=O)N2CCC(CC(=O)N3CCCCC3)CC2)c1	718 s
COc1ccc(CNC(=O)CSc2cc(N3CCN(c4ccc(OC)cc4)CC3)ncn2)cc1	1090 s
O=S(=O)(c1ccc(-c2noc(-c3ccc(F)cc3)n2)cc1)N1CCOCC1	1050 s
Cc1cc2c(cc1S(=O)(=O)N1CCCC1C(=O)N1CCN(C3CCCCC3)CC1)OCC(=O)N2 (stereo not drawn)	584 s
CCCNC(=O)Cc1c(C)n(C)c2nc(-c3ccccc3)nn2c1=O	660 s
COc1cccc(CN2N=C(C(=O)N3CCC(C)CC3)S(=O)(=O)c3ccc(C)cc32)c1	674 s

SMILES	RP-LC retention time
CN(CC(=O)Nc1ccc(S(N)(=O)=O)cc1)c1nc2ccccc2s1	662 s
COc1cccc2sc(N3CCN(C(=O)C4CCN(S(C)(=O)=O)CC4)CC3)nc12	697 s
O=C(Nc1ccc(-c2nc(-c3ccccc3)co2)cc1)c1cccs1	1100 s
Cc1ccc(S(=O)(=O)N2CCC(n3cnnc3-c3ccccc3)CC2)c(C)c1	844 s
CCn1nccc1C(=O)Nc1c(-c2cccc(F)c2)nc2sc(N3CCCCC3)nn12	964 s
COc1ccc(-c2nc3cnccn3c2Nc2ccc3c(c2)OCCO3)cc1OC	717 s
Cc1cc(=O)c2c(C)ccc(C)c2[nH]1	677 s
COc1ccc(NS(=O)(=O)c2cn(CC(C)C)c3ncccc23)cc1Cl	950 s
CC(C)n1c(N2CCN(C(=O)Cc3c[nH]c4ccccc34)CC2)cc(=O)n(C(C)C)c1=O	824 s
Cc1cccc(-c2noc(C3CCCN3C(=O)c3ccc4c(c3)OCO4)n2)c1 (stereo not drawn)	997 s
CCn1c(=O)sc2cc(S(=O)(=O)N3CCC(C(=O)Nc4cc(C)ccc4C)CC3)ccc21	932 s
Cc1ccc2nc(CCNC(=O)Cn3nc(C(=O)N4CCCC4)c4ccccc43)[nH]c2c1	613 s
COc1ccccc1N1CCN(c2cc(SCC(=O)Nc3ccc(C(C)C)cc3)ncn2)CC1	1140 s
COc1ccc2nc(NC(=O)CCCN3C(=O)C4C5C=CC(C5)C4C3=O)sc2c1 (stereo not drawn)	817 s
CCCc1nc(NC(C)c2ccc(OC)c(OC)c2)ncc1C(=O)O (stereo not drawn)	750 s
COc1ccc(Cl)cc1S(=O)(=O)N1CCc2nn(CC3CC3)c(=O)n2CC1	800 s
O=C(Cn1c(=O)c2nncn2c2ncccc21)N1CCN(c2cccc(Cl)c2)CC1	750 s
CC(C)NC[C@H](O)COc1cccc2[nH]ccc12	603 s
CC(C)(C)c1ccc(-c2csc(N)n2)cc1	666 s
Cc1csc(-c2cc(S(=O)(=O)NCCC(C)C)cn2CC(=O)N2CCCCC2)n1	1010 s
Cc1cccc(-n2nnc(C(=O)O)c2-c2cccnc2)c1	650 s
CCc1ccccc1NC(=O)Nc1cccc(-c2ccc(N3CCOCC3)nn2)c1	717 s
O=C(NCCCN1CCN(c2ccccc2F)CC1)C1CCCN(c2nc3cccnc3s2)C1 (stereo not drawn)	652 s
CCOC(=O)Cc1csc2nc(-c3ccccc3)nn12	960 s
O=C(NCc1cccnc1)C1CN(S(=O)(=O)c2cccnc2)CC12CCCCC2 (stereo not drawn)	595 s
